Experimental findings from patent publication US12527806B2, “Composition for preventing or treating diabetes mellitus” (SEOUL NATIONAL UNIVERSITY R&DB FOUNDATION, priority 2020, dated 2026) are described below.

The subject of the data set is MIN-6 cells. Nature of the data set: Cytotoxicity: cell viability of MIN-6 cells by AOPI staining and cell counter. Conditions: 24 hours.

With `N[C@H]1C(O)O[C@H](CO)[C@@H](O)[C@@H]1O` (stereo partly shown) [glucosamine], the “cytotoxicity (cell viability)” value (0.5 mM to 40 mM of each factor) is “did not show cytotoxicity”. Still for that read-out and setting: for `NC(=O)c1cccnc1` [nicotinamide] the value was “did not show cytotoxicity”. Take `CN(CC(=O)N(Cc1ccc(C2CCCCC2)cc1)c1ccc(C(=O)O)c(O)c1)S(=O)(=O)c1c(F)c(F)c(F)c(F)c1F` [BP-1-102]: the cell viability result (40 μM) is listed as “about 59%”. For the same molecule, the “cytotoxicity (cell viability)” value (up to 20 μM) was “no cytotoxicity was shown”.
